Measurements reported in patent publication US8758767B2, “Antigens targeted by prevalent pathogennic T cells in type 1 diabetes and uses thereof” (Albert Einstein College of Medicine of Yeshiva University, priority 2003, dated 2014).

Key:
H-2K^d = target: T1, H-2K^d (Mus musculus, UniProt P01902); assay: H-2K^d stabilization assay on RMA-S/K^d cells (Example 1); type: binding; conditions: FIG. 3, mean fluorescence intensity of H-2K^d
T1 construct: expressed in transfected cells; host or cells: RMA-S/K^d cells
T1 sequence (P01902 22-368): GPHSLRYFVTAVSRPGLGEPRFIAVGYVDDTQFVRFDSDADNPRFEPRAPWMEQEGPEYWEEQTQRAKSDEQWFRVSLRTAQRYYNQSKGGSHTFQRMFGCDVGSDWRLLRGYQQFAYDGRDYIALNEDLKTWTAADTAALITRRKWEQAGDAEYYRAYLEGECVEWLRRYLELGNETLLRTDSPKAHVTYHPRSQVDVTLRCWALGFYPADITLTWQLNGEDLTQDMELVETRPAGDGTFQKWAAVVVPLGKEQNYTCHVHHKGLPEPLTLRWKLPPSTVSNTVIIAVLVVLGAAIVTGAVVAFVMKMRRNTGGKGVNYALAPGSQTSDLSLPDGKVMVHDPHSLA
T1 sequence (P01887 21-119 partner): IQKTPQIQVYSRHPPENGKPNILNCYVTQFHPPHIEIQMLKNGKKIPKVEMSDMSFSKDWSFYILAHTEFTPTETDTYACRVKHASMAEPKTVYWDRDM
Method: RMA-S/K^d cells, cultured overnight at 28° C., were pulsed with peptides in complete DMEM for 1 h at 28° C., incubated at 37° C. for 3 h, washed, stained with anti-H-2K^d monoclonal antibody SF1-1.1, counter-stained with FITC-conjugated polyclonal goat anti-mouse antibody, and analyzed by flow cytometry. Data were calculated by subtracting mean fluorescence intensity of H-2K^d on non-peptide-pulsed cells from that on peptide-pulsed cells.

8.3-CD8+ T-cells = assay: Proliferation and cytokine secretion of naive splenic 8.3-CD8+ T-cells with peptide-pulsed NOD splenocytes; type: cell-based, mouse; conditions: for agonistic activity on 8.3-CD8+ T-cells: FIG. 5, peptide 0.01-1 μM
Method: Naïve or NRP-A7-differentiated (see below) splenic CD8+ T-cells from 8.3-NOD mice (2×10^4/well) were incubated, in duplicate, with peptide-pulsed (0.01, 0.1 and 1 μM), γ-irradiated (3,000 rad) NOD splenocytes (10^5/well) for 3 days at 37° C. in 5% CO2. Cultures were pulsed with 1 μCi of (^3H)-thymidine during the last 18 hours of culture and harvested.
(§1) Naïve splenic CD8+ T-cells from 8.3-NOD mice (2×10^4/well) were incubated with peptide-pulsed (0.001, 0.01, 0.1, 1 and/or 10 μM) γ-irradiated NOD splenocytes (10^5/well) in 96-well plates for 48 hours at 37° C. Short-term islet-derived T-cell lines from peptide-treated or unmanipulated NOD mice (adjusted at 2×10^4 CD8+ T-cells/well) were tested the same way, but using 10 μM of peptide. The supernatants (100 μl/well) were assayed in duplicate for IL-2, IL-4, and/or IFN-γ content by ELISA using commercially available kits (Genzyme Diagnostics, Cambridge, Mass.).

[1] = system: CD8+ cells propagated from islets of NOD mice; assay: IFN-γ secretion by islet-derived CD8+ T-cells in response to IGRP peptides; type: cell-based, mouse; conditions: peptide 10 μM, pre-diabetic or acutely diabetic NOD mice
Source text: Islet-derived CD8+ T-cells from peptide-treated or unmanipulated NOD mice were generated by culturing pancreatic islets in complete media (CM: RPMI 1640 media containing 10% fetal bovine serum), containing 0.5 U/ml Takeda rhIL-2 (10-50 islets/well in 24-well plates). The in vivo-activated, IL-2R+ lymphocytes migrating from islets into the culture media were used in functional assays within 6-9 days of islet isolation (Amrani et al., 2000; Anderson et al., 1999).
as §1

female NOD mice = assay: Repeated peptide treatment of female NOD mice, diabetes development and islet-associated CD8+ T-cells; type: in vivo, mouse; conditions: for T-cell responses against IGRP epitopes of islet-derived CD8+ T-cells of treated mice: for IGRP206-214 treatment: other IGRP epitopes; for absolute number of NRP-V7-reactive T-cells in the islets: NRP-A7 50 μg/injection vs. TUM-treated mice; for protection from diabetes by chronic treatment (discussion summary): intermediate doses NRP-A7, high doses NRP-I4, low or high doses NRP-V7, high doses IGRP206-214; for avidity of NRP-V7 tetramer binding by islet-associated CD8+ cells of treated mice: NRP-I4 100 μg/injection, NRP-A7 50 μg/injection, vs TUM-treated mice
Method: Cohorts of 3-to-4 week-old female NOD mice were injected with 1-100 μg of peptide in PBS intraperitoneally. This was repeated every 2 weeks until the 7-8th week, and every 3 weeks thereafter. Mice were monitored for development of hyperglycemia until at least the 28th week of age. The 8.3-CD8+ T-cell tolerogenic activity of APLs was determined by treating 8-15 wk-old 8.3-NOD mice with one i.p. injection of 100 μg of peptide. […] Mice were sacrificed a week after treatment, and their spleens analyzed for presence of 8.3-CD8+ T-cells by flow cytometry.
We next investigated whether the anti-diabetogenic activity of the above APLs was a function of “avidity”, as defined not only by the affinity of individual peptide/MHC complexes for specific TCRs, but also by the absolute number of peptide/MHC complexes that are available for recognition (i.e. dose of peptide). This was done by treating cohorts of female NOD mice with repeated injections of TUM (negative control), NRP-I4, NRP-A7 and NRP-V7 (in PBS) over a wide dose range, and by following the mice for development of diabetes (FIG. 7A, top). Starting at 3-4 weeks of age, mice received one injection of peptide i.p. every 2 (first three doses) or 3 weeks after initiation of treatment. Mice were sacrificed at diabetes onset or at the end of the follow-up period (28-32 weeks), to investigate the effects of treatment on the size and tetramer-binding avidity of the islet-associated IGRP206-214-reactive CD8+ T-cell subpopulation (FIG. 7A, bottom).

NOD female mice = assay: Protection of NOD mice from type 1 diabetes (Example 2); type: in vivo, mouse; conditions: for mice that developed diabetes: 100 micrograms peptide intraperitoneally from 3.5 weeks of age, read at ~25 weeks-old
Method: Ten NOD female mice were treated with 100 micrograms of IGRP206-214 peptide (in phosphate-buffered saline) intraperitoneally, starting at 3.5 weeks of age. Forty mice were used as controls. Each control mouse was treated with the TUM peptide ([…] NO:15). The mice received one injection of peptide every two weeks for the first three injections, and then one injection every three weeks thereafter. At 25 weeks-old, two (20%) of the IGRP206-214 mice developed diabetes, vs. 26 control mice ( 65%). […] There were no significant differences in interferon-γ production vs. cells stimulated with the negative control peptide TUM. In one of these two mice, the islets contained T-cells that responded to two IGRP peptides other than IGRP206-214.

AI15.F5 TCR = assay: TCR transfectant peptide recognition, IL-2 release (58 α−β− cells, RMA-S/K^d presenters); type: cell-based, mouse; conditions: FIG. 2
Source text: (§2) T cell receptors from the previously isolated NOD-derived β cell-autoreactive class I MHC-restricted T cell clones AI4, AI12.B1.1, AI12.B1.2, AI12.B1.3, AI15.A10, AI15.F5 (DiLorenzo et al., 1998), and 8.3 (Verdaguer et al., 1997) were expressed in the TCR^− T cell hybridoma 58α^−β^− (engineered to express the TCR ζ chain and CD8αβ and provided by H.-C. Chang, Dana Farber, Boston, Mass., USA) as described (Serreze et al., 2001). TCR expression was verified by flow cytometric analysis of growing clones using an antibody to CD3ε (145-2C11). RMA-S/K^d cells incubated overnight at 28° C. were used to present exogenously added synthetic peptides at concentrations as indicated in the figures. Peptide recognition by the TCR transfectants was measured by IL-2 production as previously described (Serreze et al., 2001).

AI12.B1.3 TCR = assay: as above; type: cell-based, mouse; conditions: FIG. 2
Source text: as §2

8.3 CTL = assay: Epitope reconstitution 51Cr-release cytotoxicity assay, peptide-pulsed RMA-S/K^d target cells; type: cell-based, mouse; conditions: peptide-pulsed RMA-S/K^d targets
Method: 8.3 CTL were generated by culturing splenocytes from 8.3-NOD mice with mitomycin C-treated NOD splenocytes pulsed with NRP-A7 peptide as described (DiLorenzo et al, 2002). CTL were used in 16 h ^51Cr-release cytotoxicity assays to test for recognition of peptide-pulsed RMA-S/K^d target cells (provided by M. Bevan, University of Washington, Seattle, Wash., USA) at an effector to target ratio of 40:1 as described (DiLorenzo et al., 2002). Synthetic peptides were used at concentrations as indicated in the figures, and 7×10^8, 6×10^8, and 2×10^9 NIT-1-cell-equivalents of peptide were used for assays of first-, second-, and third-dimension HPLC fractions, respectively.

[2] = target: IGRP206-214/H-2K^d on antigen-presenting cells (mouse) (UniProt P01902); assay: cell-based or functional assay
[3] = system: CD8+ cells derived from pancreatic islets of wild-type NOD mice; assay: Tetramer staining and avidity of NOD islet-derived CD8+ T-cells (Example 3); type: cell-based, mouse; conditions: FIG. 9B, at least some animals
Method: Tetramers were prepared and used as described in (Amrani et al., 2000). Hand-picked pancreatic islets from individual mice were cultured in complete media supplemented with 0.5 U/ml of Takeda rhIL-2 for 7-9 days. T-cells (10^6 per 20 μl) were then stained for 45 minutes on ice in 20 μl of wash media (0.2% sodium bicarbonate, 0.1% sodium azide and 2% FBS in RPMI-1640) containing anti-CD8-FITC (clone YTS169.4; 0.5 μg) and tetramer (85.5 nM). After washing, the cells were resuspended in wash media and analyzed with a flow cytometer (Becton Dickinson). For the analysis of tetramer staining at equilibrium, T-cells were stained for 2 hours at room temperature with 20 μl of wash media (0.2% sodium bicarbonate, 0.1% sodium azide and 2% FBS in RPMI-1640) containing anti-CD8α-FITC (clone YTS169.4; 0.5 μg) and different concentrations of tetramers (8.55, 17.1, 42.75 and 85.5 nM). After washing, cells were resuspended in 100 μl of wash media, fixed in 0.4% paraformaldehide and analyzed with a flow cytometer. The apparent Kd values were determined by plotting the negative reciprocal of the slope of the line fit to Scatchard plots of fluorescence units (median of CD8+ population tetramer staining)/nM versus fluorescence units.

[4] = IFN-γ secretion, Table II, FIG. 10A

LYLVCGERI [INS-I9]
binding to H-2K^d (H-2K^d): improved binding to H-2K^d

YLKTNVFLF [IGRP207-215]
cross-reactivity with IGRP206-214, ability to elicit 8.3-CD8+ T-cell responses (8.3-CD8+ T-cells; data not shown): cross-reactive with IGRP206-214
mice with islet CD8+ T-cells responding to the peptide (IFN-γ secretion) [1]: most mice

KYQAVTTTL [TUM, reference compound]
T-cell responses against IGRP epitopes of islet-derived CD8+ T-cells of treated mice (female NOD mice; [4]): did not significantly increase
absolute number of NRP-V7-reactive T-cells in the islets (female NOD mice): 1×10^5±0.3
mice that developed diabetes (NOD female mice): ~65%

VYLKTNVFL [IGRP206-214]
age at onset of diabetes (female NOD mice; 75-100 μg/injection): delayed
incidence of diabetes (female NOD mice; 75-100 μg/injection): did not significantly reduce
intra-islet IGRP206-214-reactive CD8+ T-cell subpopulation (female NOD mice; 75-100 μg/injection, flow cytometry and functional assays): near complete deletion
anti-IGRP206-214 response of islet-derived CD8+ T-cells of treated mice (female NOD mice; [4]): reduced both the frequency and magnitude
T-cell responses against IGRP epitopes of islet-derived CD8+ T-cells of treated mice (female NOD mice; [4]): increased the frequency and magnitude
protection from diabetes by chronic treatment (discussion summary) (female NOD mice): only afforded marginal protection from disease
binding to H-2K^d (H-2K^d): good MEC binding
mice with islet CD8+ T-cells responding to the peptide (IFN-γ secretion) [1]: most mice
recognition by AI15.F5 (IL-2 release) (AI15.F5 TCR): responded
recognition by AI12.B1.3 (IL-2 release) (AI12.B1.3 TCR): recognized
recognition by 8.3 CTL (8.3 CTL): is the natural β cell peptide recognized by 8.3
mice that developed diabetes (NOD female mice): 20%
IGRP206-214-reactive T-cells in islets of treated mice that developed diabetes (NOD female mice; NRP-V7/K^d tetramer staining): did not have IGRP206-214-reactive T-cells in islets

KYCLITIFL [G6Pase, reference compound]
recognition by 8.3 CTL (8.3 CTL): not recognized by 8.3 CTL

8.3 T cell receptor (TCR)
half-maximal activity, 51Cr-release assay with 8.3 CTL on peptide-pulsed RMA-S/K^d cells [2]: 50 µM

TYYGFLNFM [peptide 39, text numbering of the IGRP library]
mice with islet CD8+ T-cells responding to the peptide (IFN-γ secretion) [1]: a significant number of mice also mounted responses
presence of peptide-reactive CD8+ T-cells in islets by tetramers [3]: confirmed the presence

LYLVCGERG [INS B15-23]
binding to H-2K^d (H-2K^d): barely detectable even at the highest peptide concentration tested

KYNIANWFL [NRP-I4]
anti-diabetogenic activity (female NOD mice; 100 μg/injection): highly anti-diabetogenic
anti-diabetogenic activity (female NOD mice; <20 μg/injection): not protective at all
avidity of NRP-V7 tetramer binding by islet-associated CD8+ cells of treated mice (female NOD mice): significantly lower avidity
protection from diabetes by chronic treatment (discussion summary) (female NOD mice): near complete protection from diabetes
triggering IFN-γ secretion by naive 8.3-CD8+ T-cells (8.3-CD8+ T-cells; FIG. 5): quite efficient
agonistic activity on 8.3-CD8+ T-cells (8.3-CD8+ T-cells): partial agonist
inducing other responses of naive 8.3-CD8+ T-cells (8.3-CD8+ T-cells; FIG. 5, proliferation, IL-2): significantly less efficient than NRP-A7

KYNKANAFL [NRP-A7]
anti-diabetogenic activity (female NOD mice; 50 μg/injection): protected mice from diabetes
anti-diabetogenic activity (female NOD mice; 100 μg/injection): ineffective
percentages and absolute numbers of NRP-V7-reactive CD8+ cells in the islets (female NOD mice; 100 μg/injection): significantly reduced numbers
absolute number of NRP-V7-reactive T-cells in the islets (female NOD mice): 0.6×10^5±0.3
avidity of NRP-V7 tetramer binding by islet-associated CD8+ cells of treated mice (female NOD mice): accumulation of low avidity IGRP206-214-reactive CD8+ T-cells within islets
protection from diabetes by chronic treatment (discussion summary) (female NOD mice): near complete protection from diabetes
agonistic activity on 8.3-CD8+ T-cells (8.3-CD8+ T-cells): agonist
recognition by AI15.F5 (IL-2 release) (AI15.F5 TCR): did not recognize
recognition by AI12.B1.3 (IL-2 release) (AI12.B1.3 TCR): recognized

SFCKSASIP [peptide 72, text numbering of the IGRP library]
mice with islet CD8+ T-cells responding to the peptide (IFN-γ secretion) [1]: a significant number of mice also mounted responses
presence of peptide-reactive CD8+ T-cells in islets by tetramers [3]: confirmed the presence
